This is an account of results in PMC10710507 (Nature Communications, 2023).

Square brackets hold non-standard residues; d marks the D form. Ends that are not written are not given here. Phe(4-CF3) = N[C@@H](Cc1ccc(C(F)(F)F)cc1)C(=O)O

The subject of data set [1] is free fatty acid receptor 2, FFA2. As to conditions: cited from earlier work. The text has this: Whether NT binds to the orthosteric binding pocket of the intermediate state or occupies different conformations in distinct pockets remains to be fully answered. […] Intermediate-state binding pockets have been attributed to a sequential activation mechanism of the free fatty acid receptor 2, FFA2, by the previously considered allosteric modulator, 4-CMTB[62]. 4-CMTB binds to the orthoste ...

The test system of the next data set is NTS1. Particulars: cited from earlier work. An excerpt:
The ECL2 of many GPCRs forms a lid over the ligand-bound orthosteric binding pocket of the receptor via interaction with the N-terminal region or ECL3 of the receptor, which can increase the affinity of the ligand by slowing down its dissociation rate[35],[37]. Although such a formation has not been confirmed experimentally for NTS1, all structures published to date on the complex of NT with NTS1 show close contacts between the N-terminal region and the ECL2 of NTS1 (PDB: 4XEE, 6YVR, 4BUO)[21],[33],[34]. However, the structure of these parts of NTS1 in the apo-state or when complexed with smal ...

The test system of the next data set is enNTS1-R213. Briefly: Ligand-observed 19F NMR / 19F STD, enNTS1-R213 complex. Format: binding, rat. As to conditions: 298 K, pH 7.4. As for the experimental part:
The peptide-receptor complex was formed by addition of a 10-fold excess of peptide to receptor. The solution was incubated on ice for one hour, followed by buffer exchange to remove free peptide in 50 mM potassium phosphate pH 7.4, 100 mM NaCl, 0.05% DDM, 50 µM EDTA, 0.02% NaN3. 100 μM of freshly formed complexes were mixed with 10 μM free receptor to ensure excess receptor. The samples were adjusted to 10% D2O, 500 μM DSS and 20 μM TFA as lock nuclei, ^1H and ^19F references, respectively.
For NMR experiments in the presence of Gαiq, enNTS1-R213 was incubated on ice with 5-fold Y11tfmF-NT8-13 over receptor for 30 min and then 5-fold Gαiq over receptor with incubation for another 30 min. […]
^19F saturation transfer difference (STD) experiments were acquired using the STDDiff pulse sequence from the Bruker library. […] These were interleaved with equivalent off-resonance spectra, where the offset was set equidistant to the monitored and saturated peaks. The intensities of the monitored peak in the presence of on-resonance saturation were normalized against the spectra collected in the absence of saturation and subtracted from the intensities in the presence of the equidistant off-resonance spectra to account for off-resonance effects. […]

Data set [2] deals with enNTS1. Briefly: Ligand-observed 19F NMR / 19F STD, enNTS1 complex. Type of data set: binding, rat. Particulars: 298 K, pH 7.4.
The test system of data set [3] is enNTS1. Put plainly: Cell surface competition binding assay, enNTS1. The arrangement: species or system rat. Particulars: HEK293F cells, competition with 5 nM Cy5-NT8-13, 1 h, room temperature, flow cytometry, n = 4. As for the experimental part: 100,000 HEK293F cells (Invitrogen) stably expressing receptor and the cytosolic mCherry fluorophore were suspended in complete phenol red free DMEM (10% FBS, 1% L-Glutamine, 1% penicillin-streptomycin) and were added to the relevant ligand concentrations in the presence of 5 nM Cy5-NT8-13 for enNTS1 and wt-rNTS1 or 2 nM FAM-NT8-13 for rNTS1-R213L. Cells were then gently agitated on an orbital shaker in the dark for 1 h at room temperature for ligand binding to reach a state of equilibrium. The mean fluorescence intensity of bound FAM-NT8-13 and Cy5-NT8-13 was measured with a CytoflexS (Beckman-Coulter) flow cytometer using the 525/40 and 660/20 filter, respectively. Data was then analysed using the One site – Fit Ki function on GraphPad Prism (version: 9.3.1, Graphpad Software, San Diego, CA). The data for enNTS1 and wt-NTS1 are mean of four replicates (n = 4) and the assays with rNTS1-R213L are performed in triplicates (n = 3).
Supplementary Figure 3. Functional characterization of the NT peptides used in this study. The cell-surface binding of peptides to (a) wt-rNTS1 and enNTS1 (b) rNTS1-R213L. The competition binding curves are for NT8-13 (black circles) , Y11tfmF-NT8-13 (red triangles).
Cy5-labellled NT8-13 and FAM -labelled NT8-13 was used as a fluorescent competitor for investigating the binding. […]
On the technique in general: In flow cytometry, cells or beads pass a laser one at a time.

The subject of data set [4] is wt-rNTS1. Put plainly: β-arrestin-2 recruitment BRET assay, wt-rNTS1. Type of data set: cell-based, rat. As to conditions: HEK293T cells, β-arrestin-2-Venus, 37 °C, n = 3. The procedure:
(§1) 500,000 HEK293T cells were seeded per well in a 6-well plate in complete DMEM (10% FBS, 1% L-Glutamine, 1% penicillin-streptomycin). Cells were transfected the following day with a solution of Opti-mem and lipofectamine 2000 at a quantity of 1 µL/1 µg of DNA. For β-arrestin-2 recruitment assay cells were co-transfected with 250 ng of either pcDNA 3.1 zeo-HA-FLAG-wt-rNTS1-nLuc or pcDNA 3.1 zeo-HA-FLAG-rNTS1-R213L-nLuc and with 600 ng of pcDNA human β-arrestin-2-Venus. In G protein BRET assays, cells were co-transfected with 750 ng of pCSC-rNTS1-IRES-mCherry, pCSC-rNTS1-R213L-IRES-mCherry or pCSC-enNTS1-IRES-mCherry and with 250 ng of Gαi (for enNTS1) or Gq (for rNTS1 and rNTS1-R213L) BRET biosensor. […] The plate was then incubated at 37 °C for 10 min in a PHERAstar® FSX microplate reader (BMG LABTECH). Dual luminescence of 450/535 nm was then measured for 3 min before manually adding 10 µL of 10x ligand concentration or vehicle to respective wells before completing the time course measurement. The BRET ratio was calculated as Venus emission to nLuc emission. […] Concentration–response curves were calculated by first integrating the area under the BRET ratio over time plot using the Area Under the Curve function and then plotted against ligand concentration. […]

Data set [5] concerns wt-rNTS1. Put plainly: G protein BRET assay, wt-rNTS1. Type of data set: cell-based, rat. Particulars: HEK293T cells, n = 3. As for the experimental part:
as §1
Background: In BRET a luciferase serves as donor, and the signal depends on an acceptor being close.

Data set [6] in a line: 19F NMR interaction with DDM micelles. Type of data set: physicochemical. As to conditions: 298 K, Supplementary Fig. 5b. As for the experimental part: All NMR experiments were performed on a Bruker 700 MHz Avance IIIHD spectrometer running Topspin 3.2.7 and equipped with a ^1H/^13C/^15N triple-resonance TCI cryoprobe, where the proton channel was tuned to ^19F, ~658 MHz. The 1D spectra were collected in a pulse-acquire manner at 298 K, with the carrier frequency set at −65 ppm. 512 to 2048 scans were collected per spectrum with 16 K of data points and a spectral width of 49 ppm. 2680 scans were collected for the sample of Y11tfmF-NT8-13 in complex with enNTS1 in the presence of Gαiq. The spectrum on the complex of ^19F-labelled peptides and ^19F-labelled receptor were processed in Topspin vs3.4 using, respectively, 50 Hz and 10 Hz line broadening and zero filling prior to Fourier transformation. Spectral deconvolution was performed in MNova (version: 10.0.2-15465, Mestrelab Research).

In data set [7] the target is T1, wt-rNTS1 (wild-type rat neurotensin receptor 1) on HEK293F cells (rat, UniProt P20789 1-424).
T1 construct: also called wt-NTS1; source: HEK293F cells stably expressing receptor and cytosolic mCherry
T1 sequence (P20789 whole entry): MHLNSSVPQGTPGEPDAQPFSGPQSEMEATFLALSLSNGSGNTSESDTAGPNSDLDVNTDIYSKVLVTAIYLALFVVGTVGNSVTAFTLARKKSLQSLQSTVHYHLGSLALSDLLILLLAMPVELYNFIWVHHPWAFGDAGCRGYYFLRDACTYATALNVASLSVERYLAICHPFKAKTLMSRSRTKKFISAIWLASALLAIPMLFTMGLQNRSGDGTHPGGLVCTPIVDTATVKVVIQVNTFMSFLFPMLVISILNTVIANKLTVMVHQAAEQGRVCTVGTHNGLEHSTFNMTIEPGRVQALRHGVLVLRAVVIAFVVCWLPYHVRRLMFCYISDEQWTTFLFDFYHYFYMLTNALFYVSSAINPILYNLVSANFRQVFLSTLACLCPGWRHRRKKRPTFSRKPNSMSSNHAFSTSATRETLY
Briefly: flow cytometry on cells; cell surface competition: 100,000 HEK293F cells stably expressing receptor, unlabelled ligand varied against 5 nM Cy5-NT8-13, 1 h at room temperature, mCherry-positive single cells, One site - Fit Ki. Particulars: one partner purified.

With `CC(C)C(C(=O)Nc1nccs1)c1ccc(Cl)cc1` (centres unmarked) [4-CMTB], in [1], the “binding and signalling at FFA2” value was “binds to the orthosteric binding pocket of FFA2, where it primarily initiates downstream orthosteric signalling followed by diffusion into an allosteric pocket”.
Turning to `COc1cccc(OC)c1-c1cc(C(=O)N[C@@H](CC(C)C)C(=O)O)nn1-c1ccnc2cc(Cl)ccc12` [RTI-3a], the “pharmacological class at NTS1” value with NTS1 is “partial agonist”.
Take `COc1cccc(OC)c1-c1cc(C(=O)NC2(C(=O)O)C3CC4CC(C3)CC2C4)nn1-c1ccnc2cc(Cl)ccc12` (centres unmarked) [SR48692]: the “pharmacological class at NTS1” value in the data set on NTS1 is “inverse agonists”.
As to `COc1cccc(OC)c1-c1cc(C(=O)NC2(C(=O)O)C3CC4CC(C3)CC2C4)nn1-c1ccc(C(=O)N(C)CCCN(C)C)cc1C(C)C` (centres unmarked) [SR142948A], the “pharmacological class at NTS1” value with NTS1 is “inverse agonists”.
Regarding “Y11tfmF-NT8-13: truncated version of 19F-NT (RRP[Phe(4-CF3)]IL)”, in the data set on enNTS1-R213, the “exchange rate constant k12 (S1 to S2)” value is 0.14 s⁻¹ and the “exchange rate constant k21 (S2 to S1)” value was found to be 0.26 s⁻¹. Further, in the data set with enNTS1 [2], the “exchange rate constant from S1 to S2, k12” value was 1.23 s⁻¹ and the “exchange rate constant from S2 to S1, k21” value was 0.08 s⁻¹.
Regarding “Y11tfmF-NT: fluorinated analogue of NT, Tyr11 substituted with para-trifluoromethyl-phenylalanine (ELYENKPRRPFIL; para-trifluoromethyl-phenylalanine (tfmF) at position 11; pyroglutamate (pE) at position 1 as in NT)”, the “affinity for enNTS1 (effect of CF3 moiety)” value in the data set with enNTS1 [3] is “unaffected”. The “efficacy in β-arrestin recruitment BRET assay” value in the data set with wt-rNTS1 [4] is on record as “equally efficacious”. For the same molecule, in the data set with wt-rNTS1 [5] (BRET assays), the “activation of wt-rNTS1” value was “can fully activate wt-rNTS1”. Further, the “efficacy in G protein BRET assay” value in the data set with wt-rNTS1 [5] (Gq BRET biosensor, 37 °C) is “equally efficacious”. In data set [6], the “effect of DDM on 19F NMR signal of the peptide” value is on record as “not perturbed in the presence of DDM”.

B1: Y11tfmF-NT (peptide)
peptide: ELYENKPRRPFIL
modifications: para-trifluoromethyl-phenylalanine (tfmF) at position 11; pyroglutamate (pE) at position 1 as in NT
notes: in this molecule Tyr11 is replaced by tfmF (see substitutions); numbers count on: the mature neurotensin peptide; The new residue is the unnatural amino acid para-trifluoromethyl-phenylalanine, written F in the substitution row; also called 19F-NT; fluorinated analogue of NT; source: synthetic peptide (Fmoc solid phase synthesis, reverse-phase HPLC)
For B1, in [7], the “fold reduction of affinity against NT” value came out at 100 fold.
